Reference: patent publication US7691382B2, “Antiviral polypeptides comprising tandem repeats of APOE 141-149 and variants thereof” (priority 2003, dated 2010)
Peptide text beside a SMILES is read from it.

Assays:
[1] = test system: HSV2 clinical isolates; format: cell-based, Human herpes simplex virus type 2
Protocol: Plaque assays were performed. The methodology was as described in previous Examples for HSV1 plaque assays (including usage of Vero cells) except HSV2 clinical isolates (provided by Prof. Anthony Hart of Liverpool University) were employed instead.

[2] = test system: HSV1; format: cell-based, Human herpes simplex virus type 1
In short: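 Plaque reduction in Vero monolayers: ~100 pfu HSV1 pre-mixed 10 min at 37 °C with acetylated/amidated peptides in 0.5% FCS medium, inoculated 60–80 min, then carboxymethylcellulose overlay for 22 or 40 h. Plaques counted after fixing and carbol fuchsin staining; IC50 from % of control versus peptide concentration.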

Row | Compound | IC50 [1] [µM] | IC50 [2] [µM] | efficacy for reducing HSV1 infectivity (in words) ([2]; Examples 2 and 3)
1 | CC(=O)N[C@@H](Cc1c[nH]c2ccccc12)C(=O)N[C@@H](CCCNC(=N)N)C(=O)N[C@@H](CCCCN)C(=O)N[C@@H](Cc1c[nH]c2ccccc12)C(=O)N[C@@H](CCCNC(=N)N)C(=O)N[C@@H](CCCCN)C(=O)N[C@@H](CCCNC(=N)N)C(=O)N[C@@H](Cc1c[nH]c2ccccc12)C(=O)N[C@@H](Cc1c[nH]c2ccccc12)C(=O)N[C@@H](CC(C)C)C(=O)N[C@@H](CCCNC(=N)N)C(=O)N[C@@H](CCCCN)C(=O)N[C@@H](CC(C)C)C(=O)N[C@@H](CCCNC(=N)N)C(=O)N[C@@H](CCCCN)C(=O)N[C@@H](CCCNC(=N)N)C(=O)N[C@@H](CC(C)C)C(=O)N[C@@H](CC(C)C)C(N)=O [GIN 34] (Ac-WRKWRKRWWLRKLRKRLL-NH2) | < 3.3 | 6 | also had efficacy
2 | CC(=O)N[C@@H](Cc1c[nH]c2ccccc12)C(=O)N[C@@H](CCCNC(=N)N)C(=O)N[C@@H](CCCCN)C(=O)N[C@@H](Cc1c[nH]c2ccccc12)C(=O)N[C@@H](CCCNC(=N)N)C(=O)N[C@@H](CCCCN)C(=O)N[C@@H](CCCNC(=N)N)C(=O)N[C@@H](Cc1c[nH]c2ccccc12)C(=O)N[C@@H](Cc1c[nH]c2ccccc12)C(=O)N[C@@H](Cc1c[nH]c2ccccc12)C(=O)N[C@@H](CCCNC(=N)N)C(=O)N[C@@H](CCCCN)C(=O)N[C@@H](Cc1c[nH]c2ccccc12)C(=O)N[C@@H](CCCNC(=N)N)C(=O)N[C@@H](CCCCN)C(=O)N[C@@H](CCCNC(=N)N)C(=O)N[C@@H](Cc1c[nH]c2ccccc12)C(=O)N[C@@H](Cc1c[nH]c2ccccc12)C(N)=O [GIN 7] (Ac-WRKWRKRWWWRKWRKRWW-NH2) | < 3.3 | – | –
3 | CC(=O)N[C@@H](Cc1c[nH]c2ccccc12)C(=O)N[C@@H](CCCNC(=N)N)C(=O)N[C@@H](CCCCN)C(=O)N[C@@H](Cc1c[nH]c2ccccc12)C(=O)N[C@@H](CCCNC(=N)N)C(=O)N[C@@H](CCCCN)C(=O)N[C@@H](CCCNC(=N)N)C(=O)N[C@@H](Cc1c[nH]c2ccccc12)C(=O)N[C@@H](CCCNC(=N)N)C(=O)N[C@@H](CCCCN)C(=O)N[C@@H](Cc1c[nH]c2ccccc12)C(=O)N[C@@H](CCCNC(=N)N)C(=O)N[C@@H](CCCCN)C(=O)N[C@@H](CCCNC(=N)N)C(=O)N[C@@H](Cc1c[nH]c2ccccc12)C(N)=O [MU 59] (Ac-WRKWRKRWRKWRKRW-NH2) | 10 | 9.75 | –
